Source: patent US11564913B2, “Compositions and methods for treating cancer” (Children's Hospital Medical Center, priority 2019, dated 2023)

Experiments:
[1] = test system: pPAK and pBAD in p190-BCR-ABL Ba/F3 cells; experiment: Immunoblot for pPAK(T423) and pBAD(S136); assay type: cell-based, murine; details: 3 μM, within minutes of cell exposure
[2] = test system: murine p190-BCR-ABL leukemic progenitor cells (EGFP+/B220dim); experiment: Cell cycle analysis, BrdU incorporation and flow cytometry; assay type: cell-based; details: for percentage of cells in the G2+M phases: 20 h (SD, N=3)
Procedure: FIG. 13: IODVA1 decreases Rac activation and signaling. (A) Ba/F3 cells expressing p190-BCR-ABL1 were treated with IODVA1 (3 μM) as indicated and levels of active Rac (Rac-GTP) were assessed by pull-down using GST-PAK-GBD, followed by immunoblotting (upper panel) and densitometric quantification (lower panel). (B) Flow-cytometry analysis of pJNK, pS6, p4EBP, pPAK1, and pAKT of Ba/F3 cells expressing Mieg3 empty vector (light and dark blue) or p190-BCR-ABL1 (light and dark salmon) and treated with vehicle control or IODVA1 (3 μM) for 30 min. (C) Representative histogram data of the cell cycle analysis of Ba/F3 cells expressing p190-BCR-ABL and treated with vehicle control or IODVA1 (1, 3, and 10 μM) for 20 h. (D) Quantification of the average number of colonies of bone marrow wild-type (black) and Rac1^Δ/Δ+Rac2^−/− (red) p190-BCR-ABL1 leukemic cells treated with vehicle control or IODVA1 (IO1, 1 μM). ns—not significant, * p<0.05, ** p<0.01, *** p<0.001. (E) As in FIG. 13A, but cells were incubated for a fixed amount of time (1 h) at the indicated IODVA1 concentrations. (F) Ba/F3 cells expressing p190-BCR-ABL1 were treated with IODVA1 (3 μM) and lysed at the indicated times. Cell lysates were separated on SDS-PAGE and immunoblotted for pPAK(T423), pBAD(S136), and BAD. (G) Ba/F3 cells expressing p190-BCR-ABL1 were treated with IODVA1 (3 μM) and levels of active Cdc42 (Cdc42-GTP) and Rho (Rho-GTP) were assessed by pull-down at the indicated times using GST-PAK-GBD and GST-Rhotekin respectively, followed by immunoblotting (left panel) and densitometric quantification (right panel). (H) Morphology of GFP^+ leukemic colonies (left panel). Western blot analysis of Rac1 and Rac2 protein expression in Rac1^Δ/Δ+Rac2^−/− cells post poly-I:C injections (right panel). (I) Intrinsic (blue line) and p50GAP-stimulated GTP-hydrolysis reaction in the presence (red line) or absence (black line) of IODVA1. (J) Sedimentation assay of liposomal Rac1-GDP in the presence of IODVA1 (2 μM). Rac1 was visualized by immunoblotting from pellet (p) and soluble (s) fractions. (K) Stopped-flow measurement of GDI (10 μM) interaction with fluorescently-labelled Rac1 in the absence (black line) or presence (orange line) of IODVA1.
To further test this hypothesis, we analyzed the cell cycle of murine p190-BCR-ABL leukemic progenitor cells (EGFP^+/B220^dim) incubated with vehicle control or IODVA1 (1-10 μM) for 20 h, followed by in vitro BrdU incorporation and flow cytometry analysis (FIG. 13C). […] It increased the percentage of cells in the G2+M phases from 7±1% (SD, N=3) in the presence of vehicle control to 22±6.6, 32±3, and 36±7% (SD, N=3) at 1, 3, and 10 μM, respectively. At 1 μM, it reduced the S-phase 8-fold (p=0.0002) and increased apoptosis by at least 5.3-times (p=0.007). Therefore, IODVA1 induces a G2/M arrest.
Cell cycle was analyzed by using in vitro incorporation of 5-Bromo-2-deoxyuridine using Brdu Flow kit (BD Pharmingen, Cat #552598). Briefly, mice leukemic progenitors were incubated with […] BrdU solution for 45 minutes, cells were further fixed and permeabilized. DNAse treatment was done according to the instructions and stained with anti BrdU and apoptosis was analyzed by 7-AAD staining through flow cytometry analysis.

NIH-3T3 cells = experiment: PDGF-induced circular dorsal ruffle (CDR) formation; assay type: cell-based; details: 0-3 μM for 1 h, PDGF for 10 min
[3] = test system: active GTP-bound Ras in ST8814 cells; experiment: Active Ras pull-down with GST-RafRBD; assay type: cell-based; details: 2 μM
Procedure: FIG. 4. IODVA1 inhibits proliferation of cancer model cells. (A) IODVA1 is a potent cell proliferation inhibitor. MCF10A, MCF7, MDA-MB-231, and T47D cells were grown in the presence of the indicated IODVA1 concentrations and counted for 4 or up to 7 days. Each dot and bar is the mean±stdev respectively, of 3 independent experiments, with 2 technical replicates in each experiment. (B) Number of colonies made by MCF7, T47D, and MDA-MB-231 cells at the indicated IODVA1 concentrations. Results shown are mean±stdev of 2 independent experiments with 4 technical replicates each. (C) IODVA1 deactivates Ras at late incubation times. […] Quantification summary of 2 independent experiments is presented in the graph. n.s.—not significant, *-p<0.05, **-p<0.01, ****-p<0.0001. (D) IODVA1 inhibits proliferation of ST8814 cells. ST8814 cells were grown in the presence of the indicated IODVA1 concentrations and counted daily for 4 days. Each dot and bar is the mean and standard deviation respectively, of 3 independent experiments.
To check if IODVA1 inhibits Ras activation in cells, applicants determined the levels of active-GTP-bound-Ras in ST88-14 cells treated with IODVA1 (2 μM) or vehicle control at various time points. GST-RafRBD bound glutathione-beads were incubated with ST8814 cell lysates, thoroughly washed, and the protein complex separated on SDS-PAGE. Levels of GTP-bound pan-RAS proteins bound to RafRBD were determined by immunoblotting.
Levels of active Ras, Rac, Cdc42 and RhoA were determined using the Active Ras Pull-Down and Detection Kit, Active Rac Pull-Down and Detection Kit (Thermo Scientific) and RhoA/Rac1/Cdc4 Pull-down Activation Assay Combo Biochem Kit (Cytoskeleton). Cells were cultured and treated as indicated and lysed in buffer provided by the manufacturer. […] Proteins were resolved by SDS-PAGE, transferred to nitrocellulose and the level of active GTPase relative to input lysate were determined by immunoblotting analysis using the anti-Ras, anti-Rac, anti-Cdc42, or anti-RhoA antibody supplied by the manufacturer.

OC1(c2ccccn2)N=C(Nc2nc3ccccc3[nH]2)N=C1c1ccccn1 (stereo not drawn) [IODVA1, (Z)-2-((1H-benzo[d]imidazol-2-yl)imino)-4,5-di(pyridin-2-yl)-2,5-dihydro-1H-imidazol-5-ol] was tested, and the “inhibitory phosphorylation of BAD Ser136” value [1] was “decreases”, the pPAK [1] was “decreases” and the “percentage of cells in the G2+M phases” value ([2]; 1 μM, vehicle 7±1%) was 22±6.6%. For the same molecule, the “reduction of the S-phase” value ([2]; 1 μM, p=0.0002) was 8 fold, the increase in apoptosis ([2]; 1 μM, p=0.007) was “at least 5.3 times” and the “percentage of cells in the G2+M phases” value ([2]; 3 μM) was 32±3%. For the same molecule, the “percentage of cells in the G2+M phases” value ([2]; 10 μM) was 36±7%, the “G0+G1 phase” value ([2]; 1-10 μM, 20 h) was “did not affect” and the CDR formation (NIH-3T3 cells) was “inhibited”. For the same molecule, the “levels of active Ras versus vehicle control” value ([3]; 24 h) was “similar”, the “levels of active Ras versus vehicle control” value ([3]; 48 h) was “decrease in active Ras levels is seen” and the “decrease in active Ras levels” value ([3]; 72 h) was “very noticeable”.
